Assay results from the NIST ThermoML archive (doi:10.1016/j.jct.2013.08.019).
Values joined by “and” are separate entries in the source; they are usually repeats but may differ in a detail not shown here. Identical values can stand only once. Numbers after ± are expanded uncertainties.

Columns and labels:
[1] = Molar enthalpy of transition or fusion; conditions: DSC
[2] = DTA; for Triple point temperature: Crystal 2

Molar enthalpy of transition or fusion ([1]; Crystal) [kcal/mol] | Normal melting temperature ([2]; Crystal) [°C] | Molar enthalpy of transition or fusion ([1]; Crystal 2) | Normal melting temperature ([2]; Crystal 1) [°C] | Triple point temperature [2] [K] | Structure (SMILES)
10.8 ± 0.239 | 72.7 ± 0.7 |  |  |  | OCCCCCCCCCCO [1,10-decanediol]
11 ± 0.239 | 61.0 ± 0.6 |  |  |  | OCCCCCCCCCCCO [1,11-undecanediol]
13 ± 0.263 | 79.8 ± 0.7 |  |  |  | OCCCCCCCCCCCCO [1,12-dihydroxydodecane]
 |  | 13.1 ± 0.287 kcal/mol | 77.2 ± 0.7 | 339.3 ± 0.7 | OCCCCCCCCCCCCCO [1,13-tridecanediol]
15.2 ± 0.311 | 86.1 ± 0.7 |  |  |  | OCCCCCCCCCCCCCCO [1,14-tetradecanediol]
 |  | 15.6 kcal/mol and 9.15 kcal/mol | 88.1 ± 0.7 | 349 ± 0.7 | OCCCCCCCCCCCCCCCO [1,15-pentadecanediol]

The remaining lines, values behind:

Structure (SMILES) | Molar enthalpy of transition or fusion ([1]; Crystal) [kcal/mol] | Normal melting temperature ([2]; Crystal) [°C] | Molar enthalpy of transition or fusion ([1]; Crystal 2) | Normal melting temperature ([2]; Crystal 1) [°C] | Triple point temperature [2] [K]
OCCCCCCO [1,6-hexanediol] | 6.31 ± 0.143 | 41.6 ± 0.6 |  |  | 
OCCCCCCCO [1,7-heptanediol] | 6.29 ± 0.215 | 17.4 ± 4 |  |  | 
OCCCCCCCCO [1,8-octanediol] | 8.68 ± 0.191 | 58.5 ± 0.6 |  |  | 
OCCCCCCCCCO [1,9-nonanediol] | 8.77 ± 0.191 | 45.6 ± 0.6 |  |  | 
OCCCCCCCCCCCCCCCCO [1,16-dihydroxyhexadecane] |  |  | 17.4 ± 0.359 kcal/mol | 93 ± 0.7 | 364.1 ± 0.7
